{"source": "patent US6083941A", "about": "“Inhibition of NMDA receptor activity by pregnenolone sulfate derivatives” (Trustees of Boston University, priority 1998, dated 2000)", "key": {"mice": {"test_system": "mice", "experiment": "Behavioral observational assessment after i.p. steroid", "type": "in vivo", "settings": "25 mg/kg i.p.; for behavioral assessment: 30 min. after injection", "experimental": "To test for behavioral effects, PS, 5β3αS, 5β3αHS, βE2 (17)HS, or βE2 (3)HS (7 mg/ml in DMSO) was administered to mice i.p. at 25 mg/kg (5 animals per drug group). Behavioral assessments were made 30 min. after injection using a comprehensive observational assessment of motor-affective responses, sensory-motor responses, posture, muscle tone, equilibration, CNS excitation, and autonomic function (Irwin, R. P., et al., NeuroSci. Lett., 141:30-44 (1968)). […] The latency to loss of righting reflex was 2.5±0.5 min., and the latency to regain the righting reflex was 83±11 min. The rapidity of onset argues that 5β3αHS readily crosses the blood brain barrier."}, "[1]": {"target": "T1, recombinant NMDA receptors (NR1100 and NR2A subunits) (Rattus norvegicus, UniProt P35439+Q00959)", "T1 construct": "expressed in transfected cells; host or cells: Xenopus laevis oocytes injected with in vitro transcribed mRNA", "T1 sequence (Q00959 23-1464, other chains not shown)": "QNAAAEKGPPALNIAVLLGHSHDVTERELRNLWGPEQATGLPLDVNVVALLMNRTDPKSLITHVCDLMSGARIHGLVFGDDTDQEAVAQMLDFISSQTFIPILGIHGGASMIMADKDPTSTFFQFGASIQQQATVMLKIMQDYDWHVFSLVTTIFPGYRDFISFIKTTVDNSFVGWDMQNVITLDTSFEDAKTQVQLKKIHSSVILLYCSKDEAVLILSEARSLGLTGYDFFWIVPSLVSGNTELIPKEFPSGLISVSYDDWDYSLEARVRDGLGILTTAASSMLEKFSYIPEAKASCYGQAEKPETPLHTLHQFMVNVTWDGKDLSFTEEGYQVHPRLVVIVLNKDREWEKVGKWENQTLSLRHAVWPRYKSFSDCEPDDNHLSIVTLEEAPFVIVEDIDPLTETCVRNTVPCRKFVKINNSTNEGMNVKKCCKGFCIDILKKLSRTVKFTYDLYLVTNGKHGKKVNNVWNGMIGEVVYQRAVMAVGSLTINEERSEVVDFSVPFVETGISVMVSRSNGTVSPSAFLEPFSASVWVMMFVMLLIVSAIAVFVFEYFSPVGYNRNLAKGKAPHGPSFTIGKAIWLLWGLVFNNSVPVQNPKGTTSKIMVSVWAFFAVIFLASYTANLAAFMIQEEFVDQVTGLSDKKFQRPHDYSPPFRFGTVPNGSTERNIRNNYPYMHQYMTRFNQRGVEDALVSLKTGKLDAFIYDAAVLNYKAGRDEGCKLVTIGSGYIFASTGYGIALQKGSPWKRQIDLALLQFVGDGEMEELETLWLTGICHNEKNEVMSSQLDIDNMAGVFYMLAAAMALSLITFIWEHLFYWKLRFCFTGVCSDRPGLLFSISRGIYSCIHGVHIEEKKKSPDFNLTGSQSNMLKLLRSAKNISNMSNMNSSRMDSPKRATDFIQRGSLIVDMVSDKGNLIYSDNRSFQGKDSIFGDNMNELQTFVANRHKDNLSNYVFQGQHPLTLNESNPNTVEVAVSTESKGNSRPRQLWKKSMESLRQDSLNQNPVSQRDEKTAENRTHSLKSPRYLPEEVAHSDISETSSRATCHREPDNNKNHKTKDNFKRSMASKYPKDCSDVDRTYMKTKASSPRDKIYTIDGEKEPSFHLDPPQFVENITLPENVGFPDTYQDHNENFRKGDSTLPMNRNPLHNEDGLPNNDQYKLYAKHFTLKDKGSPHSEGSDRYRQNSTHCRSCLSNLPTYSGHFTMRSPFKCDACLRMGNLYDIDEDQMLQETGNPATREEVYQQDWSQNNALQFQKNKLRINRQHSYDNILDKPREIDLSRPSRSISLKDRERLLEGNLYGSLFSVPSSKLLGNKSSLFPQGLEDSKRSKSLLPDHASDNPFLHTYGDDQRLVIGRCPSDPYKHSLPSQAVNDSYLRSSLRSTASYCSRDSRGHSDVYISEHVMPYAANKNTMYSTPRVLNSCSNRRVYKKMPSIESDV", "experiment": "Two electrode voltage-clamp of Xenopus oocytes expressing recombinant NMDA receptors", "type": "cell-based", "experimental": "RNA preparation. mRNA were prepared through in vitro transcription of NR1100 and NR2A cDNAs using the mMessage mMachine kit (Ambion, Tex.). NR1100 and NR2A clones were kindly provided by Dr. Zukin and Dr. Nakanishie.\nXenopus expression system. Female, oocyte positive Xenopus laevis frogs were purchased from Nasco, Inc. (WI). The frogs were kept on a 12/12 light-dark cycle and maintained on a diet of chopped calf liver every 3 days. Prior to surgery, frogs were anesthetized in a 0.15% Tricaine solution (Sigma, Mo.) for 30-45 minutes. Ovarian sections containing the follicular oocytes were removed through a lateral abdominal incision and were immediately placed in calcium-free ND96 solution (in mM):96 NaCl; 1 MgCl2; 2 KCl; 5 Hepes; 2.5 pyruvate (pH adjusted to 7.4 with NaOH). Following a 2 hr. incubation in 0.2% collagenase type II (Sigma, Mo.) at room temperature, individual defolliculated oocytes were transferred into 60×15 mm glass petri dishes containing ND96 solution (in mM): 96 NaCl; 1 MgCl2; 2 KCl; 1.8 CaCl2; 5 Hepes; 2.5 pyruvate (pH adjusted to 7.4 with NaOH). The isolated oocytes were maintained in an incubator at 18° C. On the following date, batches of 20-40 selected oocytes (Dumont stage V and VI) were injected with 50 nl of prepared RNA solution (0.5 ng of NR1 and 12 ng of NR2A mRNAs per oocyte) using an electronic microinjector (Drummond, Pa.). The injected oocytes were used for electrophysiological experiments following 4-10 day incubation at 18° C.\nElectrical recording and drug application. The ion current recordings were obtained in two electrodes voltage-clamp mode using an Axoclamp-2A amplifier (Axon Instruments, Inc., CA). The microelectrodes were fabricated with a programmed puller (Sutter Instrument Co., CA) from glass capillaries (Dagan, Minn.) and filled with 3M KCl solution. The resistance of filled microelectrodes was in the range of 2.5-3.5 M.OMEGA.. The oocytes were clamped at a holding potential of -70 mV. The membrane current was filtered at 500 Hz and sampled at 100 Hz frequency. The drugs were applied using a gravity driven external perfusion system. The data acquisition and external perfusion control were done using SuperScopeII software package (GW Instruments, MA). All experiments were performed at room temperature of 22-24° C.\nThe degree of modulation of the amino acid response by steroids, the percent change, was defined at (I'/I-1)×100%, where I and I' are respectively the agonist-induced currents in the absence and presence of steroid. Throughout, results are expressed as mean±SEM; statistical comparison of groups was carried out using Student's t test."}}, "note": "Counter-ions that a name gives are not always drawn.", "data": [{"smiles": "CC(=O)[C@H]1CC[C@H]2[C@@H]3CC[C@@H]4C[C@H](OC(=O)CCC(=O)O)CC[C@]4(C)[C@H]3CC[C@]12C", "note": "[5β3αHS, 3α-hydroxy-5β-pregnan-20-one hemisuccinate]", "values": [{"measurement": "latency to loss of righting reflex", "setting": "mice", "result": "2.5 ± 0.5", "unit": "min"}, {"measurement": "latency to regain the righting reflex", "setting": "mice", "result": "83 ± 11", "unit": "min"}, {"measurement": "behavioral assessment", "setting": "mice", "result": "lost virtually all muscle tone"}]}, {"smiles": "CC(=O)[C@H]1CC[C@H]2[C@@H]3CC[C@@H]4C[C@H](OS(=O)(=O)O)CC[C@]4(C)[C@H]3CC[C@]12C", "note": "[5β3αS, 3α-hydroxy-5β-pregnan-20-one sulfate]", "values": [{"measurement": "effect on NMDA responses of NR1100/NR2A injected oocytes", "setting": "[1]", "result": "had an inhibitory effect"}, {"measurement": "behavioral assessment", "setting": "mice", "result": "very minor behavioral impairment"}]}, {"smiles": "CC(=O)C1CCC2C3CC=C4CC(OS(=O)(=O)O)CCC4(C)C3CCC12C", "note": "(stereo not shown) [PS, pregnenolone sulfate]", "values": [{"measurement": "activation at 100 µM", "setting": "[1]; 100 μM steroid, read-out: potentiation of a near maximal NMDA response (200 μM)", "result": "292 ± 34", "unit": "%"}, {"measurement": "behavioral assessment", "setting": "mice", "result": "unaffected except for a single decreased score on locomotor activity"}]}]}
